Measured values as given in ChEMBL document CHEMBL4507295 (2021).

What was measured:
[1] = test system: Tyrosine-protein kinase ABL1 (Homo sapiens), P00519 [H396P]; conditions: Compound concentration 1000.0 nM
[2] = test system: Tyrosine-protein kinase ABL1 (Homo sapiens), P00519 [Q252H]; conditions: Compound concentration 1000.0 nM
[3] = target: Atypical kinase COQ8A, mitochondrial (Homo sapiens) (UniProt Q8NI60); conditions: Compound concentration 1000.0 nM
[4] = target: Aurora kinase A (Homo sapiens) (UniProt O14965); conditions: Compound concentration 1000.0 nM
[5] = target: Protein-tyrosine kinase 6 (Homo sapiens) (UniProt Q13882); conditions: Compound concentration 1000.0 nM
[6] = target: Cyclin-dependent kinase 4 (Homo sapiens) (UniProt P11802); conditions: Compound concentration 1000.0 nM
[7] = target: Casein kinase II subunit alpha (Homo sapiens) (UniProt P68400); conditions: Compound concentration 1000.0 nM
[8] = target: Discoidin domain-containing receptor 2 (Homo sapiens) (UniProt Q16832); conditions: Compound concentration 1000.0 nM
[9] = target: Serine/threonine-protein kinase 17A (Homo sapiens) (UniProt Q9UEE5); conditions: Compound concentration 1000.0 nM
Serine/threonine-protein kinase 17A (Homo sapiens), sequence (Q9UEE5 whole entry): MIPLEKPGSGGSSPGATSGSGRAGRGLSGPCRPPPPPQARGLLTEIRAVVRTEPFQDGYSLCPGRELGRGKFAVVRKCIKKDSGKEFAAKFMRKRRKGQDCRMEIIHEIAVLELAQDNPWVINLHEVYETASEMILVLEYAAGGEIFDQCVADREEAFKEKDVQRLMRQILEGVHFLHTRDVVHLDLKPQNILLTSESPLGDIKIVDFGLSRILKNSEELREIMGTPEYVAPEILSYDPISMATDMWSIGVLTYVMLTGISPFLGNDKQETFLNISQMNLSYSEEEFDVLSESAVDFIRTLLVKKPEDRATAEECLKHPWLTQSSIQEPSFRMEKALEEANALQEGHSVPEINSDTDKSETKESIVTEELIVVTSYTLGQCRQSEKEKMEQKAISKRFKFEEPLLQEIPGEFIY

[10] = test system: Epidermal growth factor receptor (Homo sapiens), P00533 [G719S]; conditions: Compound concentration 1000.0 nM
[11] = test system: Epidermal growth factor receptor (Homo sapiens), P00533 [L861Q]; conditions: Compound concentration 1000.0 nM
[12] = test system: Epidermal growth factor receptor (Homo sapiens), P00533 [T790M]; conditions: Compound concentration 1000.0 nM
[13] = target: Ephrin type-A receptor 2 (Homo sapiens) (UniProt P29317); conditions: Compound concentration 1000.0 nM
[14] = target: Focal adhesion kinase 1 (Homo sapiens) (UniProt Q05397); conditions: Compound concentration 1000.0 nM
[15] = target: Tyrosine-protein kinase Fes/Fps (Homo sapiens) (UniProt P07332); conditions: Compound concentration 1000.0 nM
Tyrosine-protein kinase Fes/Fps (Homo sapiens), sequence (P07332 whole entry): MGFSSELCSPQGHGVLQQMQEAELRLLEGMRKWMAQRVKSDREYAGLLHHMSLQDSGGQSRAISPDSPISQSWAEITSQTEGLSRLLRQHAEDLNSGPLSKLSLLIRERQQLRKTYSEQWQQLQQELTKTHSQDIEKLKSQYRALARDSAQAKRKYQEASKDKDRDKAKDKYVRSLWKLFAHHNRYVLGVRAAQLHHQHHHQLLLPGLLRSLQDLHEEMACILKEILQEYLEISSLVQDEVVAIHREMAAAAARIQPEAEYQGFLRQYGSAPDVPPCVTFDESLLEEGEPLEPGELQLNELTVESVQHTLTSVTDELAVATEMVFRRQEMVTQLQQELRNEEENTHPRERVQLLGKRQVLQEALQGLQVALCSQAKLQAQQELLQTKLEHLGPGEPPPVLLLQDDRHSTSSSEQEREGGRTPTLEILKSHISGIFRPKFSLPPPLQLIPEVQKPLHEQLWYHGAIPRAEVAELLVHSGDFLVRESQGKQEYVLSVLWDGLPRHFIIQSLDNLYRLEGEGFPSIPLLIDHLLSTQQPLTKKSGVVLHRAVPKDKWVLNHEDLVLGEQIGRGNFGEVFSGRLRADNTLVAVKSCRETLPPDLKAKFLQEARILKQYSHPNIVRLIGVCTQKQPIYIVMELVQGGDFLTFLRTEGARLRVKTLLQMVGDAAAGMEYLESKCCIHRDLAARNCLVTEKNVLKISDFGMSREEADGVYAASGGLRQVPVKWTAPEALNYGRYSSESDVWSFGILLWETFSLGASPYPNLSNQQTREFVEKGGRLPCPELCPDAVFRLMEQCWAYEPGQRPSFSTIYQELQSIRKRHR

[16] = target: Homeodomain-interacting protein kinase 1 (Homo sapiens) (UniProt Q86Z02); conditions: Compound concentration 1000.0 nM
[17] = target: Interleukin-1 receptor-associated kinase 4 (Homo sapiens) (UniProt Q9NWZ3); conditions: Compound concentration 1000.0 nM
Interleukin-1 receptor-associated kinase 4 (Homo sapiens), sequence (Q9NWZ3 whole entry): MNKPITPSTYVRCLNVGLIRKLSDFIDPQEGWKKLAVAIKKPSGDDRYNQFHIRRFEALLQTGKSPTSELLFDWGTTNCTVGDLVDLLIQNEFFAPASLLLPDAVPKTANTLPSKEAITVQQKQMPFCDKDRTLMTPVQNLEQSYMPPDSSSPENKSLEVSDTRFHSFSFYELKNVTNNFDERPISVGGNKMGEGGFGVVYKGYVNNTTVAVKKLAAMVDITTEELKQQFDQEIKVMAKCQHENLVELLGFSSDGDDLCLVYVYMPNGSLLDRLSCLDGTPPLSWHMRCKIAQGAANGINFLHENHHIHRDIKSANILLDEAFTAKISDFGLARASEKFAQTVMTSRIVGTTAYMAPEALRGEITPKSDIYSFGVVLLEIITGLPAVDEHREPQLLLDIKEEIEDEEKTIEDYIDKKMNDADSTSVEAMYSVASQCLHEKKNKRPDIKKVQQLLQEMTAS

[18] = target: Tyrosine-protein kinase JAK2 (Homo sapiens) (UniProt O60674); conditions: Compound concentration 1000.0 nM
[19] = target: Mitogen-activated protein kinase 9 (Homo sapiens) (UniProt P45984); conditions: Compound concentration 1000.0 nM
Mitogen-activated protein kinase 9 (Homo sapiens), sequence (P45984 whole entry, looked up): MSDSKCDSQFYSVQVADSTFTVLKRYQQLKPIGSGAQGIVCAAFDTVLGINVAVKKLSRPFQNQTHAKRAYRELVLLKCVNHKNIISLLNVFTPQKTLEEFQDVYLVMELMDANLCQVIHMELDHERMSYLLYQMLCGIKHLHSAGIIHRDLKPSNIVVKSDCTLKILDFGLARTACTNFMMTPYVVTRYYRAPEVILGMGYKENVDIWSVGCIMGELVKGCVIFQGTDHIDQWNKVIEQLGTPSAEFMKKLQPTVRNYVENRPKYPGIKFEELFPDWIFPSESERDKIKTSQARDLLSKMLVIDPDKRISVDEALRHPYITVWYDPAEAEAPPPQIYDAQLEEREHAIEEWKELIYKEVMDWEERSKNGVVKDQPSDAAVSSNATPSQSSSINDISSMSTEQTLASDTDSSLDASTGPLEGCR

[20] = target: Leukocyte tyrosine kinase receptor (Homo sapiens) (UniProt P29376); conditions: Compound concentration 1000.0 nM
[21] = target: Tyrosine-protein kinase Lyn (Homo sapiens) (UniProt P07948); conditions: Compound concentration 1000.0 nM
[22] = target: MAP kinase-activated protein kinase 2 (Homo sapiens) (UniProt P49137); conditions: Compound concentration 1000.0 nM
[23] = target: Mitogen-activated protein kinase kinase kinase 10 (Homo sapiens) (UniProt Q02779); conditions: Compound concentration 1000.0 nM
[24] = target: Myosin light chain kinase family member 4 (Homo sapiens) (UniProt Q86YV6); conditions: Compound concentration 1000.0 nM
[25] = target: Serine/threonine-protein kinase PAK 3 (Homo sapiens) (UniProt O75914); conditions: Compound concentration 1000.0 nM
[26] = target: Cyclin-dependent kinase 18 (Homo sapiens) (UniProt Q07002); conditions: Compound concentration 1000.0 nM
[27] = target: Phosphatidylinositol 3-kinase C2 domain-containing subunit gamma (Homo sapiens) (UniProt O75747); conditions: Compound concentration 1000.0 nM
[28] = target: Protein kinase C delta type (Homo sapiens) (UniProt Q05655); conditions: Compound concentration 1000.0 nM
[29] = target: Protein kinase C epsilon type (Homo sapiens) (UniProt Q02156); conditions: Compound concentration 1000.0 nM
[30] = target: Interferon-induced, double-stranded RNA-activated protein kinase (Homo sapiens) (UniProt P19525); conditions: Compound concentration 1000.0 nM
[31] = target: Serine/threonine-protein kinase PRP4 homolog (Homo sapiens) (UniProt Q13523); conditions: Compound concentration 1000.0 nM
Serine/threonine-protein kinase PRP4 homolog (Homo sapiens), sequence (Q13523 whole entry): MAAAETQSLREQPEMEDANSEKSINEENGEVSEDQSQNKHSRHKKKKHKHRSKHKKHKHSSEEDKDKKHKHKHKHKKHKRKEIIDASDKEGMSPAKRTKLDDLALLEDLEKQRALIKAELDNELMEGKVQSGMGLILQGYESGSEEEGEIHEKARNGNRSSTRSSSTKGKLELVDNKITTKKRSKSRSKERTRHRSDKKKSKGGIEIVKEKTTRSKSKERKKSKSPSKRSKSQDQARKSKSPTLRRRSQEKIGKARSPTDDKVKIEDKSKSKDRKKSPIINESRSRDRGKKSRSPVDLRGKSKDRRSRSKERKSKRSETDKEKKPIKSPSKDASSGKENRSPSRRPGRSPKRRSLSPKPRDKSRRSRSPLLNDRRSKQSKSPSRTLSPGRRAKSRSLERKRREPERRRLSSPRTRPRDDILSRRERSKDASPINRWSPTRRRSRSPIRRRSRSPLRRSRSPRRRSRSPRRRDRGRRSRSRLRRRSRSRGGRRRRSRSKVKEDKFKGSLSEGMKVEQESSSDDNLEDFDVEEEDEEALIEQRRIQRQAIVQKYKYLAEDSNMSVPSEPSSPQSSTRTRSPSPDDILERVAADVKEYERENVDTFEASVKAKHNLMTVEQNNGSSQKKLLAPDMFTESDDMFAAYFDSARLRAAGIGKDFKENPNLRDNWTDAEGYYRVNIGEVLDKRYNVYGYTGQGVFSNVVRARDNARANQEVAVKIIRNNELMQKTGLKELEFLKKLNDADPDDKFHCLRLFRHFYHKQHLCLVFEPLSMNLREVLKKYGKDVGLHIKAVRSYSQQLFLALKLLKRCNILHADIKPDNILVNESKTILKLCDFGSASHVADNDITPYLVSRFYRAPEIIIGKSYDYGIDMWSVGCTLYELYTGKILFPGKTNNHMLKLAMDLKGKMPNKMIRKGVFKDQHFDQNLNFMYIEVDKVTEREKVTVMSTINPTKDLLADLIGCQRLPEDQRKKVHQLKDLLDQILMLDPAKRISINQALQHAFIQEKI

[32] = test system: Proto-oncogene tyrosine-protein kinase receptor Ret (Homo sapiens), P07949 [M918T]; conditions: Compound concentration 1000.0 nM
Proto-oncogene tyrosine-protein kinase receptor Ret (Homo sapiens), P07949 [M918T], sequence (P07949 whole entry M918T): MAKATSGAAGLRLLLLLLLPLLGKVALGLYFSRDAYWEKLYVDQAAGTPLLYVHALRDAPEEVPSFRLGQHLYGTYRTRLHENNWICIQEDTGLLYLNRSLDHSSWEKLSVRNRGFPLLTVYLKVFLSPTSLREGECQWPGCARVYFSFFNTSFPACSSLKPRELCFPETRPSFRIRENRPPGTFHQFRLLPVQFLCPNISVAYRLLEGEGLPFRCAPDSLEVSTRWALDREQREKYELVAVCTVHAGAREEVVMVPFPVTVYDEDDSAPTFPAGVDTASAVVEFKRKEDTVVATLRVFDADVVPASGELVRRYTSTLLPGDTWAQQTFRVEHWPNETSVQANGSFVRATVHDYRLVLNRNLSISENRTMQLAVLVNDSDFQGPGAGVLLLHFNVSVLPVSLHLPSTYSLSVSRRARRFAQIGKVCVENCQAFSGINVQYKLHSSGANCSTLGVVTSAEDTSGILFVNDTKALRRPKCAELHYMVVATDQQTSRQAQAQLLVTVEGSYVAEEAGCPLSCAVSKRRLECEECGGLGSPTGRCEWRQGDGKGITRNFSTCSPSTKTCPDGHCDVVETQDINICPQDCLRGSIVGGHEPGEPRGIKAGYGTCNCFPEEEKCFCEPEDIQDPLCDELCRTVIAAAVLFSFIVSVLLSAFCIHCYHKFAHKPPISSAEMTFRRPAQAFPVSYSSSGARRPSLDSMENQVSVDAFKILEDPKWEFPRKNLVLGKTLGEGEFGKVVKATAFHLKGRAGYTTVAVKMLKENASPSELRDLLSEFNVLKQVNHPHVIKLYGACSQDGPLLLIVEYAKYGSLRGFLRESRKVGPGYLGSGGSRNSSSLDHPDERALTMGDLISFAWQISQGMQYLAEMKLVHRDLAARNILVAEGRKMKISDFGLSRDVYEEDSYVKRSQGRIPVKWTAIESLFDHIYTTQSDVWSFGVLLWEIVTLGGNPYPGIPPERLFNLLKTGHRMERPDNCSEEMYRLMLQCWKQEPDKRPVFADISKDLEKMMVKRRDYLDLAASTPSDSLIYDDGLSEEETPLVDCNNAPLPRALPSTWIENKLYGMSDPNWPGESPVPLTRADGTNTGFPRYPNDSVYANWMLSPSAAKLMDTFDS

[33] = test system: Proto-oncogene tyrosine-protein kinase receptor Ret (Homo sapiens), P07949 [V804L]; conditions: Compound concentration 1000.0 nM
Proto-oncogene tyrosine-protein kinase receptor Ret (Homo sapiens), P07949 [V804L], sequence (P07949 whole entry V804L): as the sequence (P07949 whole entry M918T) above, with V804L, T918M counted along it

[34] = target: Receptor-interacting serine/threonine-protein kinase 1 (Homo sapiens) (UniProt Q13546); conditions: Compound concentration 1000.0 nM
Receptor-interacting serine/threonine-protein kinase 1 (Homo sapiens), sequence (Q13546 whole entry): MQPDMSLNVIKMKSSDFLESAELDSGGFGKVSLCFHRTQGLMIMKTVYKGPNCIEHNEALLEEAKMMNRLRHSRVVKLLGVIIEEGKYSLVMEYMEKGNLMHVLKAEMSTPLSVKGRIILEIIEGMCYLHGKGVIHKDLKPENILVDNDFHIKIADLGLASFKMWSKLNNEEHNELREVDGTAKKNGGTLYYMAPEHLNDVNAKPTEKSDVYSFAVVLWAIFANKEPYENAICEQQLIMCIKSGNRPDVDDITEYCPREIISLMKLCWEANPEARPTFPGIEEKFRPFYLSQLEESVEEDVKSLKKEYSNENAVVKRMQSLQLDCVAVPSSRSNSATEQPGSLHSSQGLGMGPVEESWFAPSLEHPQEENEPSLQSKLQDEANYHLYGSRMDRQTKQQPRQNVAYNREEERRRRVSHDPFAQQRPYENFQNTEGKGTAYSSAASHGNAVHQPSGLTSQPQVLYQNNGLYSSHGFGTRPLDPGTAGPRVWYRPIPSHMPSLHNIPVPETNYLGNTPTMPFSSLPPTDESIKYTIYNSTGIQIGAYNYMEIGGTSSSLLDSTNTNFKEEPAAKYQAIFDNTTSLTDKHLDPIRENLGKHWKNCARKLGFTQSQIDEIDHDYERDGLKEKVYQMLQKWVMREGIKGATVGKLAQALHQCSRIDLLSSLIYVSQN

[35] = target: Ribosomal protein S6 kinase alpha-4 (Homo sapiens) (UniProt O75676); conditions: Compound concentration 1000.0 nM
[36] = target: STE20-like serine/threonine-protein kinase (Homo sapiens) (UniProt Q9H2G2); conditions: Compound concentration 1000.0 nM
[37] = target: Mitogen-activated protein kinase kinase kinase 7 (Homo sapiens) (UniProt O43318); conditions: Compound concentration 1000.0 nM
[38] = target: Serine/threonine-protein kinase TBK1 (Homo sapiens) (UniProt Q9UHD2); conditions: Compound concentration 1000.0 nM
[39] = target: TRAF2 and NCK-interacting protein kinase (Homo sapiens) (UniProt Q9UKE5); conditions: Compound concentration 1000.0 nM
[40] = target: BDNF/NT-3 growth factors receptor (Homo sapiens) (UniProt Q16620); conditions: Compound concentration 1000.0 nM
[41] = target: 5-hydroxytryptamine receptor 1D (Homo sapiens) (UniProt P28221); conditions: Compound concentration 10.0 uM

N#CC1(c2ccccn2)CCN(Cc2cc(C(=O)N3CCCC3)c(=O)n3ccccc23)CC1
inactive: residual activity [1] 100% | residual activity [2] 97% | residual activity [3] 85% | residual activity [4] 90% | residual activity [5] 82% | residual activity [6] 98% | residual activity [7] 100% | residual activity [8] 100% | residual activity [9] 96% | residual activity [10] 100% | residual activity [11] 79% | residual activity [12] 90% | residual activity [13] 86% | residual activity [14] 89% | residual activity [15] 99% | residual activity [16] 77% | residual activity [17] 100% | residual activity [18] 85% | residual activity [19] 97% | residual activity [20] 90% | residual activity [21] 99% | residual activity [22] 84% | residual activity [23] 100% | residual activity [24] 95% | residual activity [25] 100% | residual activity [26] 100% | residual activity [27] 73% | residual activity [28] 95% | residual activity [29] 79% | residual activity [30] 100% | residual activity [31] 78% | residual activity [32] 88% | residual activity [33] 92% | residual activity [34] 100% | residual activity [35] 100% | residual activity [36] 100% | residual activity [37] 99% | residual activity [38] 99% | residual activity [39] 100% | residual activity [40] 93% | inhibition [41] 14.6%

N#CC1(c2ccccn2)CCN(Cc2cc(C(=O)O)c(=O)n3ccccc23)CC1 [MSD-M1PAM]
inactive: residual activity [1] 91% | residual activity [2] 89% | residual activity [3] 100% | residual activity [4] 100% | residual activity [5] 100% | residual activity [6] 82% | residual activity [7] 86% | residual activity [8] 100% | residual activity [9] 100% | residual activity [10] 90% | residual activity [11] 100% | residual activity [12] 100% | residual activity [13] 83% | residual activity [14] 100% | residual activity [15] 99% | residual activity [16] 100% | residual activity [17] 83% | residual activity [18] 96% | residual activity [19] 83% | residual activity [20] 100% | residual activity [21] 100% | residual activity [22] 75% | residual activity [23] 97% | residual activity [24] 100% | residual activity [25] 100% | residual activity [26] 100% | residual activity [27] 97% | residual activity [28] 100% | residual activity [29] 100% | residual activity [30] 95% | residual activity [31] 100% | residual activity [32] 100% | residual activity [33] 100% | residual activity [34] 100% | residual activity [35] 65% | residual activity [36] 99% | residual activity [37] 90% | residual activity [38] 98% | residual activity [39] 100% | residual activity [40] 84% | inhibition [41] -4.55%
